Data from US10994016B2, “Graphene oxide mediated cellular delivery of gadolinium-labeled molecules” (Northwestern University, priority 2015, dated 2021).
Like-named read-outs stand apart in the source and are kept apart here.

Columns and labels:
[1] = system: HeLa cells; assay: 24 hour cytotoxicity assay (Guava ViaCount); type: cell-based; conditions: for IC50: read-out: IC50 (viability)
Description: FIG. 11. 24 hour cytotoxicity assay using HeLa cells at increasing Magnevist and GO concentrations. […] The maximum GO dose required for cellular delivery enhancement is 20 μg/mL, or an order of magnitude below the highest test dose. The 150 nm GO was used for the study.
FIGS. 12A-B. Cytotoxicity of Magnevist. A) Viability of HeLa cells at increasing Magnevist concentration as measured by the Guava ViaCount Assay. Analysis includes floating cells at the end of the 24-hr incubation period. The fitted IC50 was 80 mM. […] Fitting was performed using GraphPad Prism software. All incubations were performed for 24 hours. Error bars show SD.
Cell counting was conducted using a Guava EasyCyte Mini Personal Cell Analyzer (EMD Millipore, Billerica, Mass.). After cell harvesting, an aliquot (50 μL) of the cell suspensions was mixed with Guava ViaCount reagent (150 μL) and allowed to stain at room temperature for at least 5 minutes. The dilution factor of 4 was determined based upon optimum machine performance (20-150 cells/μL). After vortexing for 10 sec, stained cells were counted using a Guava EasyCyte Mini Personal Cell Analyzer (PCA) using the ViaCount software module. For each sample, 1000 events were acquired. Gating of live/dead and cell/debris classifications were performed manually by the operator.

[2] = system: HeLa cells; assay: Cell MR imaging of Magnevist-labeled cells in agarose phantoms (6-well labeling, Gd content by ICP-MS, 7 T); type: cell-based; conditions: for Labeling achieved in the imaging study: after centrifugation; for Sensitivity for labeled cells on T1-weighted MRI: 7T
Description: HeLa cells were labeled by Magnevist with and without 150 nm GO co-incubation in 6-well plates. 2 plates seeded at 300,000 cells per well were needed to produce a sufficient number of cells for imaging. For the condition of GO co-incubation, 4500 μL of Magnevist-GO mixture was prepared at a concentration of 93.3 mM Magnevist and 27 μg/mL GO. The mixture was allowed to adsorb for at least 15 minutes. 375 μL of the Magnevist-GO mixture was added to 625 μL of media in each well to reach a final concentration of 35 mM Magnevist and 10 μg/mL GO. The cells were incubated with the mixture for […]. To harvest, cells were rinsed in-plate three times with 3000 μL PBS and trypsinized using 400 μL 0.25% TrypLE. After 5 minutes of incubation at 37° C., 600 μL of media was added to each well and mixed by a pipette to ensure that all cells were lifted into suspension. After combining all the wells into a 12 mL cell suspension, 3 aliquots of 25 μL each were obtained for cell counting by Guava. 175 μL of Guava ViaCount reagent was used for dilution. Additionally, 200 μL of the cell suspension was transferred to a 1.5-mL microcentrifuge tube, centrifuged at 1000 RPM for 5 min (Thermo Scientific, Model Legend Micro 21R), and re-suspended in 200 μL media to wash the cells. From the washed cell suspension, two aliquots of 25 μL each were used for cell counting by Guava and two aliquots of 25 μL each were used for Gd content analysis by ICP-MS. For the condition without GO co-incubation, the same procedures were followed except GO was replaced by Milli-Q water.
To create the cellular phantoms in agarose, a 1% media-agarose was prepared by mixing media and 2% low melting-point agarose (Life Technologies, Carlsbad, Calif.) in equal parts. At 7 T, the media-agrose has a T1 of 2952±152 ms and a T2 of 96±1 ms. In a 4 mL 15×45 mm glass vial, 2 mL of media-agarose was gelled at room temperature around a 5 mm OD NMR tube that was later removed to create a cylindrical bore. To fill the bore, the suspension of labeled cells was centrifuged at 1000 RPM for 5 minutes. After removing the supernatant, the cell pellet was re-suspended in media-agarose and further diluted to densities of 10,000, 5,000, 2,000, 500, and 100 cells/μL. 300 μL of each cell suspension was used to fill the bores in the 4 mL vials. After filling, the vials were cooled to 4° C. for 20 minutes to solidify the suspension. Approximately 3 mL of media was added on top of the media-agarose to completely fill the vial.
T1- and T2-weighted imaging were performed on a Bruker Pharmscan 7.05 T imaging spectrometer fitted with shielded gradient coils and a RF RES 300 1H 089/023 quadrature transceiver volume coil at 25° C. (Bruker BioSpin, Billerica, Mass.). Imaging was performed using a Rapid Acquisition with Refocused Echoes (RARE) pulse sequence. For T1-weighted imaging, the imaging parameters were TR=200 ms, TE=11.7 ms, NEX=1, FOV=21×21 mm^2, slice thickness=2 mm, and matrix size=256×256. For T2-weighted HDR, the imaging parameters were TR=5000 ms, TE=100 ms, NEX=1, FOV=15×15 mm^2, slice thickness=2 mm, and matrix size=256×256. The signal intensities of the acquired images were normalized such that the blank media-agarose has the same intensity across all images. Image processing was performed using ImageJ (NIH, Bethesda, Md.). T1 and T2-weighted images were processed separately.

## Diethylenetriaminepentaacetic acid gadolinium(III) dihydrogen salt hydrate [Molecule 11]
[1]; 24 h, after in-plate washing by PBS, floating cells not included
  IC50: 99 mM
[1]; 24 h, analysis includes floating cells
  IC50: 80 mM
[1]; 24 h, up to 35 mM Magnevist and 250 μg/mL GO (150 nm GO)
  Cytotoxicity: No significant cytotoxicity
[1]; Magnevist increased to 70 mM, with GO
  Cytotoxicity: synergistic cytotoxicity
[2]; 35 mM Magnevist, 10 μg/mL GO
  Improvement of labeling with GO over Magnevist alone: 57%
[2]; GO co-incubation
  Cellular Gd(III) payload relative to Gd(III)-DNA gold nanoparticles, Gd(III)-labeled polymer-liposomes, gadonanotubes and gadofullerenols: 30-50 fold
  Increase of MR sensitivity for labeled cells compared to Magnevist alone: ~10 fold
[2]; Magnevist alone (35 mM), without GO
  Labeling achieved in the imaging study: 30 fmol Gd/cell
[2]; imaging study, before centrifugation
  Enhancement by GO: 2.2 ×
[2]; with GO co-incubation (10 μg/mL), 35 mM Magnevist
  Labeling achieved in the imaging study: 47 fmol Gd/cell
[2]; with GO co-incubation (150 nm GO)
  Sensitivity for labeled cells on T1-weighted MRI: 500 cells/μL
[2]; with GO, before centrifugation
  Loading in the imaging study: 153 fmol/cell
[2]; without GO
  Sensitivity for labeled cells on T1-weighted MRI: 5000 cells/μL
[2]; without GO, before centrifugation
  Loading in the imaging study: 69 fmol/cell
